Patent US20050070510A1, “Substituted tetracycline compounds as synergistic antifungal agents” (Paratek Pharmaceuticals, Inc., priority 2001, published 2005)

tested on: COS-1 cells; assay: In vitro mammalian cytotoxicity assay (Resazurin)

SMILES	In Vitro Cytotoxicity
CN(C)[C@@H]1C(O)=C(C(N)=O)C(=O)[C@@]2(C#N)C(O)=C3C(=O)c4c(O)cccc4[C@H](OSC(F)(F)C(F)(F)F)[C@@]3(N)[C@H](O)[C@@]12N [AS]	** (toxicities less than 25 μg/mL are represented by **)
CCSC(=O)/C=C/c1ccc2c(c1O)C(=O)C1=C(O)[C@]3(C#N)C(=O)C(C(N)=O)=C(O)[C@@H](N(C)C)[C@]3(N)[C@@H](O)[C@]1(N)[C@H]2O [AT]	** (toxicities less than 25 μg/mL are represented by **)
CN(C)[C@@H]1C(O)=C(C(N)=O)C(=O)[C@@]2(C#N)C(O)=C3C(=O)c4c(O)cccc4C(N)[C@@]3(N)[C@H](OC(=O)CNC(=O)OC(C)(C)C)[C@@]12N (stereo partly shown) [AU]	** (toxicities less than 25 μg/mL are represented by **)
CN(C)[C@@H]1C(O)=C(C(N)=O)C(=O)[C@@]2(C#N)C(O)=C3C(=O)c4c(ccc(/C=C/C(=O)O)c4O)[C@H](O)[C@@]3(N)[C@H](O)[C@@]12N [AV]	** (toxicities less than 25 μg/mL are represented by **)
COC(=O)/C=C/c1ccc2c(c1O)C(=O)C1=C(O)[C@]3(C#N)C(=O)C(C(N)=O)=C(O)[C@@H](N(C)C)[C@]3(N)[C@@H](O)[C@]1(N)C2N (stereo partly shown) [AW]	** (toxicities less than 25 μg/mL are represented by **)
CN(C)[C@@H]1C(O)=C(C(N)=O)C(=O)[C@@]2(C#N)C(O)=C3C(=O)c4c(ccc(-c5ccccc5)c4O)C(N)[C@@]3(N)[C@H](O)[C@@]12N (stereo partly shown) [AX]	** (toxicities less than 25 μg/mL are represented by **)
CN(C)[C@@H]1C(O)=C(C(N)=O)C(=O)[C@@]2(C#N)C(O)=C3C(=O)c4c(ccc(C5C=CCC5)c4O)C(N)[C@@]3(N)[C@H](O)[C@@]12N (stereo partly shown) [AY]	** (toxicities less than 25 μg/mL are represented by **)
COc1ccc(-c2ccc3c(c2O)C(=O)C2=C(O)[C@]4(C#N)C(=O)C(C(N)=O)=C(O)[C@@H](N(C)C)[C@]4(N)[C@@H](O)[C@]2(N)C3N)cc1 (stereo partly shown) [AZ]	** (toxicities less than 25 μg/mL are represented by **)
CC(=O)OCCCC(C)(C)c1ccc2c(c1O)C(=O)C1=C(O)[C@]3(C#N)C(=O)C(C(N)=O)=C(O)[C@@H](N(C)C)[C@]3(N)[C@@H](O)[C@]1(N)[C@H]2N [BA]	** (toxicities less than 25 μg/mL are represented by **)
CN(C)[C@@H]1C(O)=C(C(N)=O)C(=O)[C@@]2(C#N)C(O)=C3C(=O)c4c(ccc(C(C)(C)C)c4O)[C@H](N)[C@@]3(N)[C@H](O)[C@@]12N [BB]	** (toxicities less than 25 μg/mL are represented by **)
CCC(=O)O[C@H]1[C@@]2(N)C(=C(O)[C@]3(C#N)C(=O)C(C(N)=O)=C(O)[C@@H](N(C)C)[C@]13N)C(=O)c1c(ccc(C(C)(C)C)c1O)[C@@H]2N [BC]	** (toxicities less than 25 μg/mL are represented by **)
CCCC(C)(C)NC(=O)C1=C(O)[C@@H](N(C)C)[C@]2(N)[C@@H](O)[C@@]3(N)C(=C(O)[C@]2(C#N)C1=O)C(=O)c1c(O)cccc1[C@@H]3N [BD]	** (toxicities less than 25 μg/mL are represented by **)
CCCC(C)(C)NC(=O)C1=C(O)[C@@H](N(C)C)[C@]2(N)[C@@H](O)[C@@]3(N)C(=C(O)[C@]2(C#N)C1=O)C(=O)c1c(O)ccc(N(C)C)c1[C@@H]3N [BE]	** (toxicities less than 25 μg/mL are represented by **)
CN(C)[C@@H]1C(O)=C(C(N)=O)C(=O)[C@@]2(C#N)C(O)=C3C(=O)c4c(ccc(C(C)(C)CCC[N+](=O)[O-])c4O)[C@H](N)[C@@]3(N)[C@H](O)[C@@]12N [BF]	** (toxicities less than 25 μg/mL are represented by **)
CN(C)[C@@H]1C(O)=C(C(N)=O)C(=O)[C@@]2(OC(=O)CC(C)(C)C)C(O)=C3C(=O)c4c(ccc(NC(=O)NC(C)(C)C)c4O)[C@H](N)[C@@]3(N)[C@H](O)[C@@]12N [BG]	** (toxicities less than 25 μg/mL are represented by **)
CN(C)c1cc(/C=C/c2ccccc2)c(O)c2c1[C@H](N)[C@]1(N)C(=C(O)[C@]3(C#N)C(=O)C(C(N)=O)=C(O)[C@@H](N(C)C)[C@]3(N)[C@H]1O)C2=O [BH]	** (toxicities less than 25 μg/mL are represented by **)
